Results published in US11865102B2, “Cannabidiol preparations and its uses” (GW Research Limited, priority 2018, dated 2024).
Read-outs that look alike come from different tables or passages of the source.

Columns and labels:
[1] = system: human iPSC-derived cerebral cortical neural stem cells (hNSCs); assay: Neurogenesis and neuronal differentiation of hNSCs (MAP2 immunocytochemistry); assay type: cell-based; details: 0.1 and 1 μM, 3 or 5 days
Protocol: Human iPSC-derived cerebral cortical neural stem cells (hNSCs) (Axol Bioscience Inc., UK) were cultured as monolayers at a density of 1.010^4 cells/cm^2 on 100 mm diameter Petri dishes. The cells were collected from their original cryovial, suspended in Plating-XF Medium and plated on Petri dishes coated with SureBondXF 1× working solution prepared in D-PBS (without calcium or magnesium). hNSCs were incubated at 37° C. and 5% CO2 and 24 hours after of incubation, the plating medium was replaced with fresh Neural Expansion-XF Medium supplemented with the growth factors Recombinant Human EGF and Recombinant Human FGF2 (final concentration of 20 ng/mL (1×) of FGF2 and EGF). The cultures were re-fed with fresh Neural Expansion-XF supplemented with EGF and FGF2 every two days. When the hNSCs reached approximately 80% confluence, they were prepared for treatment. […]
Digital Leica LAS AF 2.2.0 software (Live Data Mode system) was used for counting Map2ab+DAPI+ cells. […] For each experimental condition, cells from 3 different tubes were each analyzed in triplicate and 3 frames were collected at 20× magnification. Data were analyzed with GraphPad Prism 6 software, version 6.05 (GraphPad, Inc.) and are expressed as mean±SEM. Statistical differences among groups were determined by two-way ANOVA followed by post hoc Bonferroni tests for comparison among means. […]

[2] = system: MES-induced tonic seizures; assay: Maximal electroshock seizure (MES) test; assay type: in vivo; details: Mus musculus, ip, i.p. 60 minutes prior to MES, male C57Bl6 mice, sigmoidal curve, constant top, read-out: ED50 protecting 50% of mice against MES-induced tonic seizures
Protocol: This study was performed using male C57Bl6 mice, weighing between 23.6-31.2 g, which were purchased from a licensed breeder (Charles River, UK). Naïve mice were acclimatized to the procedure room in their home cages, with food and water available ad libitum. Animals were housed in groups of 2-3, in standard caging on a 12 hr/12 hr light-dark cycle. All animals were tail marked and weighed at the beginning of the study. Animals were randomly assigned to vehicle or treatment groups.
The following drugs were used in this study: synthetic CBD (SYN) and botanically derived purified CBD (BOT). The control vehicle used was (1:1:18), which was 5% Ethanol, 5% Kolliphor, 90% saline, and has been used extensively throughout similar seizure tests. All drugs were dissolved in the control vehicle for comparison. Animals were dosed (10 ml/kg) i.p. at 60 minutes prior to the administration of the maximal electroshock seizure (IVIES) test. In addition to the vehicle group, the dosage groups used for each treatment and included doses of 10, 50, 100 (Experiment 1 only), 150 and 200 mg/kg for CBD (SYN) and CBD (BOT). The number of animals in each of these groups were 10 (n=10).
Two separate experiments were undertaken using two different batches of the botanically derived purified CBD. […]

[3] = system: sub-chronic PCP-induced deficit in novel object recognition; assay: Novel object recognition (NOR) test after sub-chronic PCP; assay type: in vivo; details: rat dose multiplied by 0.16 (FDA dose conversion guidance)
Protocol: Female hooded-Lister rats were used for this experiment. Rats were housed in groups of 5 under standard laboratory conditions under a 12 hr light: dark cycle, with lights on at 0700 hr. Testing was carried out in the light phase. Rats were randomly assigned to two treatment groups and treated with vehicle, n=20 (distilled water, i.p.) or Phencyclidine hydrochloride (PCP), n=100 (2 mg/kg, i.p. twice daily for 7-days). PCP was dissolved in distilled water. This was followed by a 7-day wash out period before the rats were tested following acute treatment with CBD, risperidone or vehicle. […]
Following the 3 minute habituation period, the rats are given two 3 minute trials (T1 and T2) which were separated by a 1 minute inter-trial interval in the home cage during which the objects were changed. Behavior in all trials was recorded on video for subsequent blind scoring. […]
The exploration time(s) of each object (A, B, familiar and novel) in each trial were recorded using two stopwatches and the following factors were calculated: total exploration time of both objects in the acquisition trial, total exploration time of both objects in the retention trial. Habituation of exploratory activity included the exploration time, as measured by the number of lines crossed, for both trials.
All data were assessed for normality using D'Agostino and Pearson normality test. […]

`C=C(C)[C@@H]1CCC(C)=C[C@H]1c1c(O)cc(CCCCC)cc1O` [Synthetic CBD, 2-[(1R,6R)-3-Methyl-6-(1-methylethenyl)-2-cyclohexen-1-yl]-5-pentyl-1,3-benzenediol] was tested, and the “Effect on neurogenesis and neuronal differentiation of hNSCs relative to vehicle-treated cells” value [1] was “did not have a significant effect”, the ED50 ([2]; Experiment 1) was 77.6 mg/kg and the ED50 ([2]; Experiment 2) was 77.4 mg/kg. The “Human equivalent of the rat MED” value [3] was 1.6 mg/kg/day.
